According to patent US20250263370A1 (Tay Therapeutics Limited, priority 2022, published 2025):

Assays:
[1] = target: BRD4 BD1 (Homo sapiens (Human), UniProt O60885); experiment: NanoBRET bromodomain assay, NanoLuc-BRD4-BD1 fusion in HEK293 cells; type: cell-based; details: top concentration 10 μM
[2] = Plasma stability assay, rat plasma; type: in vitro ADME; details: Method 2 (10 μM)
Description: From stock solution of compound in 10 mM DMSO, a working solution of 1 mM is prepared by diluting the compound in DMSO. To 398 μL of plasma pre-warmed at 37° C. for 15 minutes), 2 μL of working solution of compound is added, resulting in a final concentration of 5 μM (0.5% DMSO) for the compound. The sample is then incubated at 37° C. Aliquot is withdrawn at specified time-points (0, 15, 30, 60 and 120 mins). The reaction is stopped by addition of 450 μL cold acetonitrile containing internal standard (IS). […] Aliquots of the supernatant is analysed using LC-MS/MS. The percent remaining of the compound at each time point is calculated with respect to the control sample (0 min time-point).
A working solution of compound (500 μM) is prepared in DMSO (100%). To 735 μL of plasma, 15 μL of working solution of compound is added—resulting in a final concentration of 10 μM (2% DMSO) for the compound. The sample is then incubated at 37° C. Aliquot is withdrawn at time-points—0, 15, 30, 60, 90 and 120 mins. The reaction is stopped by using chilled acetonitrile containing internal standard (IS). The samples are centrifuged and the supernatants analyzed using LC-MS/MS. The percent remaining of the compound at each time point is calculated with respect to the control sample (0 min time-point).

[3] = Intrinsic clearance in liver microsomes, rat; type: in vitro ADME; details: rat, liver microsomes, pH 7.4, rat liver microsomes, Method 1; read-out: Half-Life (T1/2) (min), Rat
Description: From stock solution of compound on 10 mM DMSO, a working solution of 0.1 mM is prepared by diluting the compound in DMSO. 6.25 μL of a 20 mg/mL solution of microsomes in PBS pH 7.4 buffer is added to 216.25 μL PBS pH 7.4 buffer (final microsome concentration—0.5 mg/mL). 25 μL of 10 mM solution of NADPH in PBS pH 7.4 buffer is added to the incubations (final NADPH concentration—1 mM). The mixture is pre-warmed to 37° C. for 10 minutes. 2.5 μL of test compound working solution is added (final compound concentration—1 μM with 1% DMSO). Aliquots of 30 μL are taken from the reaction solution at 0.5, 5, 15, 30 and 60 minutes. The reaction was stopped by the addition of 5 volumes of cold acetonitrile with IS (100 nM alprazolam, 200 nM caffeine and 100 nM tolbutamide). Samples were centrifuged at 3, 220 g for 40 minutes. Aliquots of 100 μL of the supernatant are mixed with 100 μL of ultra-pure H2O and used for LC-MS/MS analysis. The percent compound remaining at each time point is calculated with respect to that of the 0.5 min sample. The data are analysed to calculate half-life. Control experiments are run without NADPH and blank samples are prepared using DMSO without the test compound.
A 50 mM stock solution (in DMSO) is prepared for the compound. From the stock solution, a working solution of 0.5 mM is prepared by diluting the compound in DMSO. This concentration of working solution is prepared considering a final concentration of 1 uM with 0.1% DMSO. The compound (1 μL of working solution) is spiked in PBS with pH 7.4 ([…]) at a concentration of 1 μM. Subsequently, 110 μL of 10 mM NADPH is added (as a co-factor). The sample is incubated at 37° C. for 15 min. Following this, pre-warmed liver microsomes (27.5 μL; final protein conc. 0.5 mg/mL) are added. The samples are then incubated at 37° C. Aliquots of samples are withdrawn at 0, 5, 15, 30, 45 and 60 min. The reaction is stopped by using chilled acetonitrile containing internal standard. The samples are centrifuged, and the supernatants analysed by LC-MS/MS. The percent compound remaining at each time point is calculated with respect to that of the 0 min sample. The data are then analysed to calculate half-life and intrinsic clearance (CLint). Control experiments are run without NADPH and blank samples are prepared using DMSO without the test compound.

[4] = Sprague-Dawley rat pharmacokinetics, IV and PO cassette dosing; type: in vivo
Description: Compounds were formulated in 5% DMSO, 40% PEG-400, 55% Milli-Q water at a concentration of 0.2 mg/mL for IV and at 0.5 mg/mL for PO. Two male Sprague-Dawley rats per arm were dosed with up to 5 compounds in cassette mode, which each compound being dosed at 1 mg/kg IV and 5 mg/kg PO. Blood was sampled at various timepoints and plasma isolated. 50 μL of plasma with 5 μL of blank Sprague-Dawley rat plasma were added to 200 μL of acetonitrile containing IS mixture. The samples were vortexed for 30 s. After centrifugation at 4 degrees Celsius, 3900 rpm for 15 min, the supernatant was diluted 3 times with water. 20 μL of diluted supernatant was injected into the LC/MS/MS system for quantitative analysis and concentration of analyte determined by comparison with matrix matched standard curve. WinNonlin (Phoenix™, version 8.3) or other similar software may be used for pharmacokinetic calculations.

[5] = target: BRD4 BD2 (Homo sapiens (Human), UniProt O60885); experiment: NanoBRET bromodomain assay, NanoLuc-BRD4-BD2 fusion in HEK293 cells;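 also: tracer displacement BRET read in transfected cells after 2 h compound exposure at 37 °C, signal in milliBRET units corrected against no-tracer background wells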

In the case of `CNC(=O)c1[nH]c(C(=O)NC2COC2)cc1OC(C)c1ccc(Cl)cc1F` (single isomer, unassigned) [Example 39, 3-(1-(4-chloro-2-fluorophenyl)ethoxy)-N^2-methyl-N^5-(oxetan-3-yl)-1H-pyrrole-2,5-dicarboxamide], the IC50 [1] is reported as at least 10 µM, the “Plasma Stability (% remaining at 120 minutes), Rat” value [2] is reported as 93% and the half-life at 1 μM [3] is reported as over 60 min. For the same molecule, the “PO F” value ([4]; PO 5 mg/kg, Method 1) was 11%, the half-life ([4]; male, Sprague-Dawley, rat, plasma, iv, 1 mg/kg, IV 1 mg/kg, Method 1, read-out: IV T1/2 (converted)) was 30 min and the IC50 ([5]; BRD4 BD2 (IC50), NanoBRET, HEK293 cells, top concentration 10 μM) was 0.05 to 0.2 µM. For the same molecule, the Fold selectivity ([5]; IC50 for BRD4 BD1 divided by IC50 for BRD4 BD2, qualitative if an IC50 is at the upper limit) was “XX (Fold >50 and ≤200)”.
